Activity calls are given as the source filed them. The calls are words filed in the database; no cut-off is given here.

In ChEMBL document CHEMBL3227944, “Beta-adrenoceptor studies. 5. 1H NMR and IR spectroscopic analysis of the conformation of the hydrohalide salts of beta-adrenoceptor-blocking aryloxypropanolamines. Evidence for a seven-membered ring structure with participation of two hydrogen bonds” (J Med Chem, 1979) one finds pA2 and Activity data, which are given here for six molecules.

The nature of assay [1]: Antagonist activity at guinea pig atrium beta-adrenoceptor assessed as inhibition of isoprenaline-induced effect. It is filed as tissue-based, Cavia porcellus, Cardiac atrium.
Assay [2] in a line: Antagonist activity at guinea pig trachea beta-adrenoceptor assessed as inhibition of isoprenaline-induced effect. It is filed as tissue-based, Cavia porcellus.
The species named for assay [3] is Cavia porcellus. As to the kind of experiment: Competitive antagonist activity at guinea pig trachea beta-adrenoceptor assessed as inhibition of isoprenaline-induced effect up to 10^-4 M. It is filed as tissue-based.
Assay [4] is filed under the species Cavia porcellus. Put plainly: Competitive antagonist activity at guinea pig atrium beta-adrenoceptor assessed as inhibition of isoprenaline-induced effect up to 3 X 10^-5 M. The class given is tissue-based. The conditions noted are these: Cardiac atrium.

Regarding `Cc1cccc(OCC(CO)NC(C)C)c1.Cl` (configuration not stated), the pA2 (commonly a measure of antagonist potency on a negative log scale) is 5.08 in assay [1] and 5.21 in assay [2].
With `COCC(COc1cccc(C)c1)NC(C)C.Cl` (configuration not stated), the result in assay [3] was inactive. Further, the pA2 in assay [1] came to 4.66.
For `Cc1cccc(OCC(Cl)CNC(C)C)c1` (configuration not stated), the outcome in assay [3] and in assay [4] was inactive.
On to `Cc1cccc(OCC(O)CNC(C)C)c1.Cl` (configuration not stated), for which the pA2 is on record as 8.76 in assay [1] and 7.97 in assay [2].
In the case of `Cc1cccc(OCC(CCl)NC(C)C)c1.Cl` (configuration not stated), the outcome in assay [3] was inactive. Moreover, the pA2 in assay [1] is 4.86.
Turning to `COC(CNC(C)C)COc1cccc(C)c1.Cl` (configuration not stated), in assay [3], the outcome was inactive. For the same molecule, in assay [1], the pA2 is recorded as 5.41.
